Consider 15 compounds from PubChem BioAssay AID488798 (The Scripps Research Institute Molecular Screening Center, 2010).

SMILES strings stand for the structures. Calls of active or inactive are those of the source. The rule behind the calls is not given here.

Sequence of Protein Rev (Human immunodeficiency virus type 1 group M subtype B (isolate HXB2)) (P04618 whole entry, looked up): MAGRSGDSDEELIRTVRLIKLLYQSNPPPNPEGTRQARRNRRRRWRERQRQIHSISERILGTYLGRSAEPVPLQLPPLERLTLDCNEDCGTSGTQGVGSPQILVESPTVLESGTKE

This assay addresses Protein Rev (Human immunodeficiency virus type 1 group M subtype B (isolate HXB2)) (UniProt P04618). Kind of assay: Rev-RRE interaction blockers – biochemical, FRET, dose response, counter-screen for gld-1 inhibitor project, late-stage follow-up (AID 488798). As to conditions: FRET Rev-RRE RNA binding. Background: The purpose of a counterscreen is to sort out artefacts and off-target activity.
Take `O=c1[nH]c(=O)c2nc3ccccc3nc2[nH]1`: the IC50 (commonly the concentration needed to halve the response being measured) is > 75.4 µM (inactive).
In the case of `O=c1[nH]c2cc3ccccc3cc2nc1C(F)(F)F`, the IC50 entry was “inactive”.
In the case of `CCOC(=O)c1c(C)oc2c1cc(NS(=O)(=O)c1ccc(C)cc1)c1ccccc12` it was > 75.4 µM (inactive); in that of `COc1ccc(C=Nc2c(-c3ccco3)nc3ccccn23)cc1OC`, > 75.4 µM (inactive); in that of `CCN(CC)S(=O)(=O)c1ccc(N2CCCC2)c(NS(=O)(=O)c2ccc(F)cc2)c1`, > 75.4 µM (inactive).
As for `Nc1c(O)ccc2c1C(=O)c1ccccc1C2=O`, the IC50 was > 75.4 µM (inactive).
The value for `Cc1ccc(S(=O)(=O)Nc2cc3c(C(=O)Nc4ccccc4)c(C)oc3c3ccccc23)c(C)c1` was > 75.4 µM (inactive).
In the case of `Nc1ccc(O)c2c1C(=O)c1ccccc1C2=O` it was > 75.4 µM (inactive).
In the case of `O=C1C2=C(SCCS2)C(=O)N1CCCO` it was > 75.4 µM (inactive).
`CC1=CC(=O)c2c(O)ccc(O)c2C1=O`: the IC50 was > 75.4 µM (inactive).
For the compound `COc1ccc(/C=C(\CC(=O)O)c2nc3ccccc3s2)cc1O`, the IC50 is > 75.4 µM (inactive).
In the case of `Nc1ccc2nonc2c1[N+](=O)[O-]` it was > 75.4 µM (inactive); in that of `O=C(CN1C(=O)NC2(CCCCC2)C1=O)Oc1ccc2c(C(F)(F)F)cc(=O)oc2c1`, > 75.4 µM (inactive).
In the case of `CCCCn1c(=O)[nH]c2nc3cc(NC(C)=O)ccc3nc2c1=O` it was “inactive”; in that of `Cc1ccc(S(=O)(=O)Nc2cc3c(C(=O)Nc4ccccc4)c(C)oc3c3ccccc23)cc1`, “inactive”.
